Seven compounds from article PMC5041959, “A high-content EMT screen identifies multiple receptor tyrosine kinase inhibitors with activity on TGFβ receptor” (Oncotarget, 2016) can be followed below.

Assay [1] concerns ROCK. As to the kind of experiment: ROCK cellular assay (MLC Thr18/Ser19 phosphorylation ELISA in A7r5 cells). In kind it is cell-based, rat. To be noted: 90 min compound.
Assay [2] concerns the target ROCK2 (Homo sapiens, UniProt O75116). As to the kind of experiment: Biochemical kinase profiling (33PanQinase radiometric assay).
Assay [3] addresses ROCK1 (Homo sapiens, UniProt Q13464). Described as above.
For assay [4], the system named is Py2T cells. Nature of the assay: High-content microscopy EMT assay in TGFβ-treated Py2T breast cancer cells. In kind it is cell-based, murine. As to conditions: for Emax (maximal effect on cell count): compared to reference 10 μM SB-431542 = 100%.
Assay [5] concerns the target T1, TGFBR1 (Homo sapiens, UniProt P36897).
T1 sequence (P36897 34-503): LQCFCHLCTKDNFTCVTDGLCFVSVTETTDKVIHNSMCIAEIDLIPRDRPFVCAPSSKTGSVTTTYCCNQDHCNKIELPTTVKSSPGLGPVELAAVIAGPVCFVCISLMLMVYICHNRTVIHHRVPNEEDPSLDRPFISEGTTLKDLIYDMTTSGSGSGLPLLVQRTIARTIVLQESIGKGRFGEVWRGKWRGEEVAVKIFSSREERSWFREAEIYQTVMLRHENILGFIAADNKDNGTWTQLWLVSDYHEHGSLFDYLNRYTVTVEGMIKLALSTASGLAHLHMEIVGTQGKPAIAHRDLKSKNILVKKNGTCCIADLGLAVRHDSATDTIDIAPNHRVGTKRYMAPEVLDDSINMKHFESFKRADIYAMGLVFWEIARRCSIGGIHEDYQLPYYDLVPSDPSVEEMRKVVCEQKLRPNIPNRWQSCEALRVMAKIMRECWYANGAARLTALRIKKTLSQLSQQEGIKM
Nature of the assay: Biochemical kinase profiling (33PanQinase radiometric assay).

In assay [6] the target is FGFR3 (Homo sapiens, UniProt P22607). Described as above.
The target in assay [7] is FGFR4 (Homo sapiens, UniProt P22455). The description is as above.
The target of assay [8] is TGFBR2 (Homo sapiens, UniProt P37173). The description is as above.
Assay [9] concerns NMuMG cells. As to the kind of experiment: High-content microscopy EMT screen in TGFβ-treated NMuMG cells (FA, SF, FN, cell count). In kind it is cell-based, murine. As to conditions: for Emax: read-out: Emax (maximal effect on cell count).
Assay [10] deals with FGFR2 (Homo sapiens, UniProt P21802). As to the kind of experiment: Biochemical kinase profiling (33PanQinase radiometric assay).
For assay [11], the target named is PDGFRB (Homo sapiens, UniProt P09619). Described as above.
For assay [12], the target named is PDGFRA (Homo sapiens, UniProt P16234). The description is as above.
The target in assay [13] is SRC (Homo sapiens, UniProt P12931). The assay is described as above.
The target in assay [14] is FGFR1 (Homo sapiens, UniProt P11362). Described as above.
Assay [15] addresses EGFR (Homo sapiens, UniProt P00533). Described as above.
The mark [16] stands for this setting: read-out: ROCK2 IC50, ATP at apparent Km.
Where [17] appears, read: read-out: ROCK1 IC50, ATP at apparent Km.
Setting [18] is: Py2T, cell count decreased by 50% compared to DMSO control, read-out: Tox IC50.
[19] abbreviates: Py2T, compared to 10 μM SB-431542, read-out: CCI IC50 (cell count increase).
[20] abbreviates: Mus musculus, 96 h, NMuMG, TGFβ1 2 ng/ml plus compound, 4 days, parameter decreased by 50%, read-out: FA IC50 (focal adhesion formation).
Setting [21] is: Mus musculus, 96 h, NMuMG, TGFβ1 2 ng/ml plus compound, 4 days, parameter decreased by 50%, read-out: FN IC50 (fibronectin patch formation).
Where [22] appears, read: Mus musculus, 96 h, NMuMG, TGFβ1 2 ng/ml plus compound, 4 days, parameter decreased by 50%, read-out: SF IC50 (stress fibers).
[23] abbreviates: Mus musculus, NMuMG, cell count decreased by 50% compared to DMSO control, read-out: Tox IC50.
Where [24] appears, read: Mus musculus, NMuMG, mean of IC50 values obtained for FA, SF, FN, read-out: EMT (FA/SF/FN) combined IC50.
[25] abbreviates: Mus musculus, read-out: CCI IC50 (cell count increase).
Where [26] appears, read: Mus musculus, Py2T, cell count decreased by 50% compared to DMSO control, read-out: Tox IC50.
Where [27] appears, read: Py2T, TGFβ plus compound, 4 days.
Where [28] appears, read: read-out: TGFBR1 IC50, ATP at apparent Km.
Where [29] appears, read: read-out: FGFR3 IC50, ATP at apparent Km.
Where [30] appears, read: read-out: FGFR4 IC50, ATP at apparent Km.
The mark [31] stands for this setting: read-out: TGFBR2 IC50, ATP at apparent Km.
Where [32] appears, read: NMuMG, cell count decreased by 50% compared to DMSO control, read-out: Tox IC50.
Setting [33] is: NMuMG, compared to reference 10 μM SB-431542 = 100%.
The mark [34] stands for this setting: read-out: FGFR2 IC50, ATP at apparent Km.
Setting [35] is: NMuMG, TGFβ1 2 ng/ml plus compound, 4 days, parameter decreased by 50%.

pIC50: −log10 of the molar value. Like-named read-outs stand apart in the source and are kept apart here. Some results are limits rather than exact numbers.

FGFR2, sequence (P21802 22-821): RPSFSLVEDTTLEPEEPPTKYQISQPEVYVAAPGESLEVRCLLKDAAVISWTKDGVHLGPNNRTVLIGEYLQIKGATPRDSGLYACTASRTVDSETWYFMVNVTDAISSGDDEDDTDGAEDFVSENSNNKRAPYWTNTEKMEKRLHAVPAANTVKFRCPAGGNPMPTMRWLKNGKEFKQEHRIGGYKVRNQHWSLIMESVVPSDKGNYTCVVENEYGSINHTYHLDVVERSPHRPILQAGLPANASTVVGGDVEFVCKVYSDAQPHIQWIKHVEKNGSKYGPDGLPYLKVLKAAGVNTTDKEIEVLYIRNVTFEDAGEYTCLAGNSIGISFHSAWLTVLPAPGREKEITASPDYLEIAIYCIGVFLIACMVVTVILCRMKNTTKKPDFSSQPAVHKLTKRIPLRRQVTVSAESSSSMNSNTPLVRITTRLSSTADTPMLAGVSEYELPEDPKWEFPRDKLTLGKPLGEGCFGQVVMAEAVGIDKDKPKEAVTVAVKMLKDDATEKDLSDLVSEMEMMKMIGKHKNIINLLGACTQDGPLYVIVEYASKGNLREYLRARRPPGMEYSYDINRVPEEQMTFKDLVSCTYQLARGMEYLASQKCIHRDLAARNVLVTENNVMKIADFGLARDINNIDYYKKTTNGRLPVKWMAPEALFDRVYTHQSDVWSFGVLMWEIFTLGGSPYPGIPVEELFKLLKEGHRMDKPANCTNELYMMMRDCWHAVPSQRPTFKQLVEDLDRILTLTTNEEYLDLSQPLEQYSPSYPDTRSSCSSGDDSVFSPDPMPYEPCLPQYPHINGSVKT
PDGFRB, sequence (P09619 33-1106): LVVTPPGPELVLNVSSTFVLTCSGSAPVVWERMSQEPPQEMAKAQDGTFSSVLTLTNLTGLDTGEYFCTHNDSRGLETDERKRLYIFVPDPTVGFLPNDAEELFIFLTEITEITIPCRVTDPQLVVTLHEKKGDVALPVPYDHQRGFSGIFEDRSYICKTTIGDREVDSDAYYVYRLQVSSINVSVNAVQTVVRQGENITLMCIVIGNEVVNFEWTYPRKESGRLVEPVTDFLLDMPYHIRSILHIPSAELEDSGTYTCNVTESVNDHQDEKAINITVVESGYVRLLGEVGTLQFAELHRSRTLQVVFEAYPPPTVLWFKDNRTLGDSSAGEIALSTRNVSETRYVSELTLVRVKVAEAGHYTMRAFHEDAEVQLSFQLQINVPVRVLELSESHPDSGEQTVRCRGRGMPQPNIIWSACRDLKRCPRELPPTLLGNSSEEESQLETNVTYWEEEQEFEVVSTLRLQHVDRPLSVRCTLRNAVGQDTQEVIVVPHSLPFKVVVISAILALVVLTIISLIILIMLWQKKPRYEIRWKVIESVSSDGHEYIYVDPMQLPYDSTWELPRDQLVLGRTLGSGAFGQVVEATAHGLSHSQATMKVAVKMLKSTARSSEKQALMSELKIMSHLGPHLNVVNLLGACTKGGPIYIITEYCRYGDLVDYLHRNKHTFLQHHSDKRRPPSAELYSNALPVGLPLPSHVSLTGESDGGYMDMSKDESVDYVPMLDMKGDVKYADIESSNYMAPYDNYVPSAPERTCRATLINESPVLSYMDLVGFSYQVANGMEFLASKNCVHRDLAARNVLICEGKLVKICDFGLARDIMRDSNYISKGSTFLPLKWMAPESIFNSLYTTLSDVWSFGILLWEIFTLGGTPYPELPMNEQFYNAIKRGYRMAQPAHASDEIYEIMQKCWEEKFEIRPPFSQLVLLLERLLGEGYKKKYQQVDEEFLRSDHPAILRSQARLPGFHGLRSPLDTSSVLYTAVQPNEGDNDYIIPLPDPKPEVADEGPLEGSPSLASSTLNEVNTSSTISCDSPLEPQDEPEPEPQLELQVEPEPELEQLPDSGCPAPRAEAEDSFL
SRC, sequence (P12931 whole entry): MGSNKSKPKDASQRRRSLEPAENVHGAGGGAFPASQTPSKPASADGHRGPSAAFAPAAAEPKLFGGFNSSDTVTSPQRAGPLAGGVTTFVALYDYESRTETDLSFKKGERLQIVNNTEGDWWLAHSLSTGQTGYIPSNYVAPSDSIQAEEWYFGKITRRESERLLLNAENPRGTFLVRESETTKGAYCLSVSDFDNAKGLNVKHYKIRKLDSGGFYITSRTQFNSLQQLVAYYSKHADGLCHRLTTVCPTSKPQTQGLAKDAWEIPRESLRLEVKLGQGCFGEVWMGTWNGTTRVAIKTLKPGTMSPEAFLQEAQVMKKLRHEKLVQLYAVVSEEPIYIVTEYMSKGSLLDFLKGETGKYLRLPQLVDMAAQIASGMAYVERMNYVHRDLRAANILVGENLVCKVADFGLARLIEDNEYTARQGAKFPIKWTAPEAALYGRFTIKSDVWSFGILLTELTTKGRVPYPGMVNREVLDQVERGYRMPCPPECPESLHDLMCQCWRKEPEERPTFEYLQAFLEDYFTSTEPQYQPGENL
ROCK1, sequence (Q13464 whole entry): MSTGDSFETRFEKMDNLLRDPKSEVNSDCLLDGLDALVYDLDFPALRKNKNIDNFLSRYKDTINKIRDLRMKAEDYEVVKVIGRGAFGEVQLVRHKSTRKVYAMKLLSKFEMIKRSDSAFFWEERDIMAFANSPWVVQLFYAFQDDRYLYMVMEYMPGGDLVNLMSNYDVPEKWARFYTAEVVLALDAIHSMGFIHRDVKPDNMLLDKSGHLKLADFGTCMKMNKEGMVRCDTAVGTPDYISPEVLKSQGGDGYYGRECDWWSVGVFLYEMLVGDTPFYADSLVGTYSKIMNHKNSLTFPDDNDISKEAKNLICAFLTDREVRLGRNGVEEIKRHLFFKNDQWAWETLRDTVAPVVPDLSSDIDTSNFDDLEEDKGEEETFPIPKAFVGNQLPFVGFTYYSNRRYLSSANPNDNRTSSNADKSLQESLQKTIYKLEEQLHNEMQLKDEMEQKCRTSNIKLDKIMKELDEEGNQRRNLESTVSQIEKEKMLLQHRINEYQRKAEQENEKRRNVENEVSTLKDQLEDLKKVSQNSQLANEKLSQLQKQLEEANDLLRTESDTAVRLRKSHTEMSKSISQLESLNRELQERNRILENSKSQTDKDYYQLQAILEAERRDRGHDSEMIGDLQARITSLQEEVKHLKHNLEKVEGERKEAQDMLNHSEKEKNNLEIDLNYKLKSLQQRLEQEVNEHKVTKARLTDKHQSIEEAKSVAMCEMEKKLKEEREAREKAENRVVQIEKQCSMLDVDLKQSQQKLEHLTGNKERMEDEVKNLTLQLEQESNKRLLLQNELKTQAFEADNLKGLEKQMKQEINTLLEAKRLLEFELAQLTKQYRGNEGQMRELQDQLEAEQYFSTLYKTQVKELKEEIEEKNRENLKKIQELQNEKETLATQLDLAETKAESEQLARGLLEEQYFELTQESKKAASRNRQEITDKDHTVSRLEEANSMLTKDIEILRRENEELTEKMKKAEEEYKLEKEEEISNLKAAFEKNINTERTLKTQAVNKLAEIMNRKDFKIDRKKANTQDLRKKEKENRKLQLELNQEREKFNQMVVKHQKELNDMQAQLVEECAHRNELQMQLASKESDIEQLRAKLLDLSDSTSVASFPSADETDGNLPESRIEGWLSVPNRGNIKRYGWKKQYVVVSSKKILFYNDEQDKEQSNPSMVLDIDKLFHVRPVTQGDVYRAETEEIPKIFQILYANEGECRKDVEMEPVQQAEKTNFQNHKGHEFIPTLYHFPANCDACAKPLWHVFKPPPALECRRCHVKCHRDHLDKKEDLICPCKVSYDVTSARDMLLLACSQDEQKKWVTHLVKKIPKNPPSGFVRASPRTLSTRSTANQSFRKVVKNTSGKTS
PDGFRA, sequence (P16234 24-1089): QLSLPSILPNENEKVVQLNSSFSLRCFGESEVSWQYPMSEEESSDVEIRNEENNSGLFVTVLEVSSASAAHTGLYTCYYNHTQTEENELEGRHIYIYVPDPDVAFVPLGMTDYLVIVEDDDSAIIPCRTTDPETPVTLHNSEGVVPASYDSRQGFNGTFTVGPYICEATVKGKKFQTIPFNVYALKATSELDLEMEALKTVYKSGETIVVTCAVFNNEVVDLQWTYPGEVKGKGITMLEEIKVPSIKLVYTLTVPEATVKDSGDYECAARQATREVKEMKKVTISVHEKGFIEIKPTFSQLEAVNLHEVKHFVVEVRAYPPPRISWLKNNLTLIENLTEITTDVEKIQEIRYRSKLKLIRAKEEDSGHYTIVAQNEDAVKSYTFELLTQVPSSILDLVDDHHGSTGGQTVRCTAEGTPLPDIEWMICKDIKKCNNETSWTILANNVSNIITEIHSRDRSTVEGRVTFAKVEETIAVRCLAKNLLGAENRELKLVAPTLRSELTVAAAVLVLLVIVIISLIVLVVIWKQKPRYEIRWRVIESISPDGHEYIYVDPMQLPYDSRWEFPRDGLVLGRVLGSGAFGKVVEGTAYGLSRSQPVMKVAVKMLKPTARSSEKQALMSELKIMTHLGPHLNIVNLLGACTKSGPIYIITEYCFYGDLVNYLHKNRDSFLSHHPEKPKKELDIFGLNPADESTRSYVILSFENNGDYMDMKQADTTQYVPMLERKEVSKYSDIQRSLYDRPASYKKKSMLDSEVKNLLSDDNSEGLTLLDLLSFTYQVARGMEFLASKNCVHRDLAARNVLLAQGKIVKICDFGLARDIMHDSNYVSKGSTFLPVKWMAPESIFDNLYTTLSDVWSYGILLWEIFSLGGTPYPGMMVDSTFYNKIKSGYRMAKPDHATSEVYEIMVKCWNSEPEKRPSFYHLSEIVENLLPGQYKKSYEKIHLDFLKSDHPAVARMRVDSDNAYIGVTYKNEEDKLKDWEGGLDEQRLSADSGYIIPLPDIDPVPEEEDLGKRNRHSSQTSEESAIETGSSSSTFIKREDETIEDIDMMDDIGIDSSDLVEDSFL

For `NC(=O)c1ccc(NC(=O)NCc2cccc(C(=O)Nc3ccc4c(c3)CNCC4)c2)cc1` [CAY10622], the pIC50 in [1] was under 5.00; in assay [2] (setting [16]) it was 7.75; in assay [3] (setting [17]), 7.27; in assay [4] (Py2T, TGFβ plus compound, 4 days, read-out: FA IC50 (focal adhesions)), under 4.60; in assay [4] (Py2T, TGFβ plus compound, 4 days, read-out: FN IC50 (fibronectin patches)), under 4.60; in assay [4] (Py2T, TGFβ plus compound, 4 days, read-out: SF IC50 (stress fibers)), under 4.60. Besides, the pIC50 in assay [4] (setting [18]) and in assay [4] (setting [19]) was under 4.60 in each case. Further, in [4] (Py2T), the “Emax (maximal effect on cell count)” value stood at 18.4%.
What is called Emax is the greatest response seen or fitted, relative to the assay's reference. Regarding `CCN(CC)CCOc1ccc(Nc2ncc3cc(-c4c(Cl)cccc4Cl)c(=O)n(C)c3n2)cc1` [PD-166285], the pIC50 in assay [5] is 8.17; in assay [6] it was 8.05; in [7] it was 7.26; in [8] (TGFBR2 IC50, ATP at apparent Km), 6.86; in assay [9] (setting [20]) it was 7.57; in assay [9] (setting [21]), 7.41. In addition, the pIC50 in assay [9] (setting [22]) was 7.10; in assay [9] (setting [23]), 6.64; in assay [9] (setting [24]), 7.32; in assay [9] (setting [25]) it was 7.77; in assay [10], 8.74; in [4] (setting [26]), 6.86. In assay [9] (Mus musculus), the Emax was 24%. Also, the “FA IC50 (focal adhesions)” value in [4] (setting [27]) is recorded as “n.m”. Moreover, in assay [4] (setting [27]), the “FN IC50 (fibronectin patches)” value is listed as “n.m”. The “SF IC50 (stress fibers)” value in assay [4] (setting [27]) is “n.m”. For the same compound, in [4] (Py2T), the “Emax (maximal effect on cell count)” value is listed as “n.m”.
With `CCN(CC)CCCCNc1ncc2cc(-c3c(Cl)cccc3Cl)c(NC(=O)NC(C)(C)C)nc2n1` [PD-161570], the pIC50 in assay [5] (setting [28]) is 7.35; in assay [6] (setting [29]) it was 7.57; in [7] (setting [30]), 6.18; in assay [11] (read-out: PDGFRB IC50, ATP at apparent Km) it was 7.02; in assay [2] (setting [16]), under 5.00; in assay [8] (setting [31]), 5.89. In addition, the pIC50 in assay [3] (setting [17]) is under 5.00; in assay [12] (read-out: PDGFRA IC50, ATP at apparent Km), 5.63; in assay [13] (read-out: SRC IC50, ATP at apparent Km), 8.28; in assay [9] (NMuMG, TGFβ1 2 ng/ml plus compound, 4 days, parameter decreased by 50%, read-out: FA IC50 (focal adhesion formation)), 6.47; in assay [9] (NMuMG, TGFβ1 2 ng/ml plus compound, 4 days, parameter decreased by 50%, read-out: FN IC50 (fibronectin patch formation)) it was 5.98; in [9] (NMuMG, TGFβ1 2 ng/ml plus compound, 4 days, parameter decreased by 50%, read-out: SF IC50 (stress fibers)), 6.15. For the same compound, the pIC50 is 5.30 in assay [9] (setting [32]); 6.28 in assay [9] (NMuMG, cell count increased by 50% compared to 100% with 10 μM SB-431542, read-out: CCI IC50 (cell count increase)); 6.16 in assay [9] (NMuMG, mean of IC50 values obtained for FA, SF, FN, read-out: EMT (FA/SF/FN) combined IC50); 8.19 in assay [10] (setting [34]); 6.32 in assay [4] (setting [18]); 6.63 in assay [4] (setting [19]). The figures for the “Emax (maximal effect on cell count)” value in [9] (setting [33]) and in [4] (Py2T) were 50.8% and 43%, respectively. The “FA IC50 (focal adhesions)” value in [4] (setting [27]) is given as “n.m”. In assay [4] (setting [27]), the “FN IC50 (fibronectin patches)” value was “n.m”. Also, the “SF IC50 (stress fibers)” value in assay [4] (setting [27]) is listed as “n.m”.
In the case of `COc1cc(OC)cc(-c2cc3cnc(N)nc3nc2NC(=O)NC(C)(C)C)c1` [PD-166866], the pIC50 in [5] (setting [28]) was under 5.00; in assay [6] (setting [29]), 7.31; in assay [7] (setting [30]) it was 6.31; in assay [2] (setting [16]), under 5.00; in [8] (setting [31]) it was under 5.00; in assay [3] (setting [17]), under 5.00. Besides, the pIC50 in assay [14] (read-out: FGFR1 IC50, ATP at apparent Km) was 7.65; in assay [9] (setting [32]) it was 5.47; in assay [10] (setting [34]), 7.99. Also, the “FA IC50 (focal adhesion formation)” value in [9] (setting [35]) was “n.m”. Besides, the “FN IC50 (fibronectin patch formation)” value in [9] (setting [35]) was “n.m”. Also, the “SF IC50 (stress fibers)” value in assay [9] (setting [35]) is recorded as “n.m”. Besides, in assay [9] (NMuMG, cell count increased by 50% compared to 100% with 10 μM SB-431542), the “CCI IC50 (cell count increase)” value was “n.m”. In assay [9] (setting [33]), the “Emax (maximal effect on cell count)” value is given as “n.m”.
Take `CC1=C(C(=O)Nc2cc3cn[nH]c3cc2F)C(c2ccc(C(F)(F)F)cc2)CC(=O)N1` (centres unmarked) [GSK429286A]: the pIC50 was 7.54 in assay [1] (Rattus norvegicus, 1.5 h); 7.26 in assay [2]; 7.33 in assay [3]; 6.90 in assay [9] (setting [20]); 6.58 in assay [9] (setting [21]); 7.09 in assay [9] (setting [22]). For the same compound, the pIC50 in [9] (setting [23]) is under 4.60; in assay [9] (setting [24]), 6.80; in assay [9] (setting [25]), 6.85; in assay [4] (Mus musculus, 96 h, Py2T, TGFβ plus compound, 4 days, read-out: FA IC50 (focal adhesions)), 6.61; in assay [4] (Mus musculus, 96 h, Py2T, TGFβ plus compound, 4 days, read-out: FN IC50 (fibronectin patches)) it was 6.72; in assay [4] (Mus musculus, 96 h, Py2T, TGFβ plus compound, 4 days, read-out: SF IC50 (stress fibers)), 6.98. Besides, the pIC50 in assay [4] (setting [26]) is 4.69; in [4] (setting [25]), 7.29. For the same compound, the Emax in assay [9] (Mus musculus) amounted to 33.2%; in [4] (Mus musculus, read-out: Emax (maximal effect on cell count)) it was 47.5%.
`CCN(CC)CCCCNc1ncc2cc(-c3cc(OC)cc(OC)c3)c(NC(=O)NC(C)(C)C)nc2n1` [PD-173074]: the pIC50 was under 5.00 in [5]; 6.38 in assay [7]; 5.47 in assay [11]; under 5.00 in [2]; under 5.00 in assay [8]; under 5.00 in [3]. In addition, the results for the pIC50 in [12], in assay [13] and in [9] (setting [23]) were under 5.00, 5.17 and 5.49, respectively. Moreover, the “Emax (maximal effect on cell count)” value in [9] is listed as “n.m”. Moreover, in assay [9] (setting [35]), the “FA IC50 (focal adhesion formation)” value was “n.m”. Besides, in [9] (setting [35]), the “FN IC50 (fibronectin patch formation)” value is given as “n.m”. For the same compound, in assay [9] (setting [35]), the “SF IC50 (stress fibers)” value is reported as “n.m”.
For `COCCOc1ccc2c(c1)ncn2-c1ccc2cccc(N3CCC(N)CC3)c2n1` [CP673451], the pIC50 in [5] is under 5.00; in assay [1] (Rattus norvegicus, 1.5 h), 5.82; in [6], 5.04; in [7], under 5.00; in assay [11], 8.72; in [2] it was 6.00. Also, the pIC50 in assay [8] is under 5.00; in assay [3], 5.47; in assay [12], 6.21; in [13], 5.97; in assay [14], 5.25; in assay [9] (setting [21]), 5.69. For the same compound, the pIC50 is 5.59 in [9] (setting [22]), 5.44 in assay [9] (setting [23]), 5.67 in assay [15] and 6.00 in assay [10]. Moreover, the “FA IC50 (focal adhesion formation)” value in assay [9] (setting [35]) was “n.m”. For the same compound, the “Emax (maximal effect on cell count)” value in [9] (setting [33]) is given as “n.m”.
